This note sets out measurements from PMC6514670, “Field-Based Affinity Optimization of a Novel Azabicyclohexane Scaffold HIV-1 Entry Inhibitor” (Molecules, 2019).

The target in data set [1] is B41 SOSIP.664 gp140 trimer (Human immunodeficiency virus type 1, UniProt B3UES2, A505C/E513R/I563P/INS515RR/K514R/T609C). The data set is classed as binding, HIV-1.
Data set [2] in a line: Cellular toxicity (Cell Counting Kit-8). The data set is classed as cell-based, Human. Particulars: human, U87.CD4.CCR5/CXCR4 cells; 48 h, CCK-8, 0.1–1000 µM. As for the experimental part: (§1) The viability of the U87.CD4.CCR5/CXCR4 cells was determined using the Cell Counting Kit-8 cell proliferation and cytotoxicity assay (Dojindo Molecular Technologies, Rockville, MD, USA) per the manufacturer’s instructions. U87.CD4.CCR5/CXCR4 cells (1.2 × 10^4 cells/well) were seeded in 96-well tissue culture plates (Olympus Plastics, San Diego, CA, USA). After 24 h, cells were treated with compound (0.1–1000 µM) or DMSO (Sigma) for 48 h at 37 °C. Subsequently, 10 µL of the CCK-8 solution was added to each well and incubated for 4 h at 37 °C. Following the 4 h incubation, the absorbance at 450 nm was measured in a Multiskan™ GO Microplate Spectrophotometer (Thermo Scientific). Untreated cells were used as a background control and 0.1% SDS treated cells were used as a positive control.
A general note: Formazan colour is commonly taken as a measure of viable cells.

Data set [3] relates to U87.CD4.CCR5/CXCR4 cells. Description: Cellular toxicity (Cell Counting Kit-8). The data set is classed as cell-based, Human. Particulars: CC50 / median IC50. As for the experimental part: as §1
Data set [4] has as its system HIV-1B41 Env pseudotyped HIV-1. Description: Single-round infection assay, B41 Env pseudotyped virus. Conditions: Human immunodeficiency virus 1, U87/CD4/CCR5, 48 h, read-out: IC50 B41.
For data set [5], the system named is HIV-1JRFL Env pseudotyped HIV-1. The experiment in a line: Single-round infection assay, JRFL Env pseudotyped virus. Particulars: Human immunodeficiency virus 1, U87/CD4/CCR5, 48 h, read-out: IC50 JRFL.
For data set [6], the system named is HIV-1YU-2 Env pseudotyped HIV-1. The experiment in a line: Single-round infection assay, YU-2 Env pseudotyped virus. Conditions: Human immunodeficiency virus 1, U87/CD4/CCR5, 48 h, read-out: IC50 YU-2.
Data set [7] concerns HIV-1HxBc2 Env pseudotyped HIV-1. The experiment in a line: Single-round infection assay, HxBc2 Env pseudotyped virus. Conditions: Human immunodeficiency virus 1, U87.CD4.CXCR4, 48 h, read-out: IC50 HxBc2.
Data set [8] concerns HIV-1JRCSF Env pseudotyped HIV-1. Description: Single-round infection assay, JRCSF Env pseudotyped virus. Conditions: Human immunodeficiency virus 1, U87/CD4/CCR5, 48 h, read-out: IC50 JRCSF.
In data set [9] the test system is HIV-1B41, HIV-1HxBc2, HIV-1JRCSF, HIV-1JRFL, and HIV-1YU-2 Env pseudotyped HIV-1. Description: Single-round infection assay, summary over the five Env pseudotypes. Conditions: Human immunodeficiency virus 1, read-out: Median IC50.

On to `COc1ccc(-c2noc(N)n2)c2[nH]cc(C(=O)C(=O)NC3C4CN(C(=O)c5ccccc5)CC43)c12` (stereo not shown) [SC56, 2-(7-(5-Amino-1,2,4-oxadiazol-3-yl)-4-methoxy-1H-indol-3-yl)-N-(3-benzoyl-3-azabicyclo[3.1.0]hexan-6-yl)-2-oxoacetamide], for which, in data set [1], the “improvement in KD (affinity) in comparison to parental SC28” value was 1000 fold. Moreover, in [1], the ka is 1.22 ± 0.067 × 10^7 M^−1s^−1. Also, the kd in data set [1] is on record as 6.39 ± 0.31 × 10^−3 s^−1. In addition, the SPR surface saturation entry in data set [1] (12.5 µM and 6.25 µM, 13000 RUs trimer immobilized, theoretical Rmax 41 RUs) is given as “saturate the surface”. Further, the “increase of ka parameter in comparison to SC28” value in data set [1] (SPR) worked out at 1000 factor. The CC50 (as a rule, the concentration at which the toxic effect on the cells reaches its halfway point) at 48 h in [2] was determined as 94000 ± 10000 nM. Moreover, the “Therapeutic Index (CC50/IC50)” value in data set [3] worked out at 1344.71. Besides, the IC50 (in general, the midpoint of a concentration-inhibition curve) was 51 ± 8 nM in data set [4]; 130 ± 15 nM in [5]; 110 ± 49 nM in data set [6]; 11 ± 3 nM in data set [7]; 46 ± 9 nM in data set [8]; 69.8 ± 45 nM in data set [9].
With `Nc1nc(-c2ccc(F)c3c(C(=O)C(=O)NC4C5CN(C(=O)c6ccccc6)CC54)c[nH]c23)no1` (stereo not shown) [SC55, 2-(7-(5-amino-1,2,4-oxadiazol-3-yl)-4-fluoro-1H-indol-3-yl)-N-(3-benzoyl-3-azabicyclo[3.1.0]hexan-6-yl)-2-oxoacetamide], in data set [2], the CC50 at 48 h turned out to be 73000 ± 14000 nM. Moreover, the “Therapeutic Index (CC50/IC50)” value in data set [3] was 75.85. Besides, the IC50 in data set [4] was 2020 ± 810 nM; in data set [5] it was 450 ± 330 nM; in [6], 1150 ± 810 nM; in data set [7], 730 ± 560 nM; in data set [8], 450 ± 350 nM; in [9], 960 ± 590 nM.
In the case of `COc1cnc(-n2cnc(C)n2)c2[nH]cc(C(=O)C(=O)NC3C4CN(C(=O)c5ccccc5)CC43)c12` (stereo not shown) [SC28], the ka in data set [1] was 1.39 ± 0.14 × 10^4 M^−1s^−1. The kd in [1] is recorded as 6.99 ± 0.43 × 10^−3 s^−1. In [2], the CC50 at 48 h is 190000 ± 54000 nM. In addition, the “Therapeutic Index (CC50/IC50)” value in [3] came out at 1291.21. Moreover, the concentration for half-maximal inhibition (IC50) stood at 35 ± 6.2 nM in [4]; 170 ± 50 nM in data set [5]; 480 ± 50 nM in data set [6]; 21 ± 5 nM in data set [7]; 26 ± 9 nM in data set [8]; 150 ± 170 nM in [9].
`C=C(C(=O)NC1C2CN(C(=O)c3ccccc3)CC21)n1ccc2c(-n3cnc(C)n3)nc3ccnn3c21` (stereo not shown) [SC52, N-(3-benzoyl-3-azabicyclo[3.1.0]hexan-6-yl)-2-(5-(3-methyl-1H-1,2,4-triazol-1-yl)-8H-pyrazolo[1,5-a]pyrrolo[3,2-e]pyrimidin-8-yl)acrylamide] returned a 50% cytotoxic concentration (CC50) at 48 h in data set [2] of 9200 ± 1100 nM. For the same compound, in [3], the “Therapeutic Index (CC50/IC50)” value stood at 8.65. Besides, the IC50 is 430 ± 100 nM in data set [4]; 1350 ± 440 nM in [6]; 440 ± 170 nM in data set [7]; 2020 ± 250 nM in data set [8]; 1060 ± 668 nM in data set [9].
As to `COc1cnc(-n2cnc(C)n2)c2[nH]cc(C(=O)C(=O)N3CC4CN(C(=O)c5ccccc5)CC4C3)c12` (stereo not shown) [SC11], in data set [1], the ka is recorded as 3.83 ± 1.12 × 10^3 M^−1s^−1 and the kd is listed as 5.02 ± 2.67 × 10^−4 s^−1.
For `COc1cnc(-n2cnc(C)n2)c2[nH]cc(C(=O)C(=O)N3CC(CCC(=O)c4ccccc4)C3)c12` [SC15], in data set [1], the ka is listed as 3.01 ± 0.188 × 10^5 M^−1s^−1 and the kd was 5.44 ± 0.677 × 10^−3 s^−1.
`O=C(NC1C2CN(C(=O)c3ccccc3)CC21)C(=O)c1c[nH]c2c(-c3cccnc3)ncc(F)c12` (stereo not shown) [SC50] returned a CC50 at 48 h in [2] of 120000 ± 18000 nM. Further, the “Therapeutic Index (CC50/IC50)” value in data set [3] is listed as 6.63. For the same compound, the 50% inhibitory concentration (IC50) in data set [4] worked out at 7100 ± 4200 nM; in [5] it was 24300 ± 6200 nM; in [6], 22600 ± 4200 nM; in data set [7] it was 6900 ± 5200 nM; in [8] it was 28900 ± 5620 nM; in data set [9] it was 18000 ± 9000 nM.
With `CNC(=O)c1ncc(OC)c2c(C(=O)C(=O)NC3C4CN(C(=O)c5ccccc5)CC43)c[nH]c12` (stereo not shown) [SC49], the ka in data set [1] is 9.49 ± 1.6 × 10^2 M^−1s^−1. Further, the kd in [1] is reported as 3.43 ± 0.36 × 10^−2 s^−1. In addition, in data set [2], half-maximal cytotoxicity (CC50 at 48 h) was put at 326000 ± 81000 nM. For the same compound, in [3], the “Therapeutic Index (CC50/IC50)” value is reported as 7.31. Besides, the IC50 in data set [4] worked out at 26000 ± 19000 nM; in data set [5], 33300 ± 11600 nM; in data set [6] it was 57200 ± 26500 nM; in data set [7], 62000 ± 1400 nM; in data set [9] it was 45000 ± 15000 nM.
Turning to `COc1cnc(-n2cnc(C)n2)c2[nH]cc(C(=O)C(=O)N3CC=C(CNC(=O)c4ccccc4)CC3)c12` [SC45], in data set [1], the ka is given as 1.38 ± 0.045 × 10^4 M^−1s^−1 and the kd is recorded as 1.52 ± 0.0294 × 10^−2 s^−1.
